Tests used:
fasted Wistar rats = assay: Gastric emptying of a phenol red-labelled methylcellulose meal in fasted naive rats (model for gastroparesis); assay type: in vivo, rat; settings: for increase in gastric emptying relative to the vehicle control group: 15 min after meal; for potency in gastric emptying compared to metoclopramide, based on the different dose levels: dose-dependent, FIG. 2
Method: To examine the effects of compounds of the invention in a model for gastroparesis, compounds were evaluated for possible effects on gastric emptying in fasted rats as described below.
GHRP-6 and test samples were dissolved in vehicle of 9% HPBCD/0.9% NaCl. Immediately following oral administration of methylcellulose (2%) containing phenol red (0.05%) (2 mL/rat), test substances or vehicle (9% HPBCD/0.9% NaCl) were each administered intravenously (i.v.) at a dosing volume of 5 mL/kg.
Test substances were each administered intravenously to a group of 5 O/N-fasted Wistar derived male rats weighing 200±20 g immediately after methylcellulose (2%) containing phenol red (0.05%) was administered orally at 2 mL/animal. The animals were then sacrificed 15 minutes later. The stomach was immediately removed, homogenized in 0.1 N NaOH (5 mL) and centrifuged. Following protein precipitation by 20% trichloroacetic acid (0.5 mL) and re-alkalization of the supernatant with 0.1 N NaOH, total phenol red remaining in the stomach was determined by a colorimetric method at 560 nm. A 30 percent or more (≧30%) increase in gastric emptying, detected as the decrease in phenol red concentration in the stomach relative to the vehicle control group, is considered significant.
• 1. To ascertain data for representative compounds 25 and 298 as prokinetic agents with potent effects on gastric emptying, a model for gastroparesis. Methods • 1. Overnight-fasted rats (male, Wistar, ˜200 g, N=5/group) were given a meal of methylcellulose (2%) by intragastric gavage. The meal was labeled with phenol red (0.05%). • 2. […] Animals were sacrificed 15 minutes later; the stomach was immediately removed and homogenized in 0.1 N NaOH and centrifuged. • 4. Total phenol red remaining in the stomach was quantified by a colorimetric method at 560 nm. • 5. A >30% increase in gastric emptying, detected based on the phenol red concentration in comparison to the control group, is considered significant. Results

rats dosed with morphine = assay: Rat model of opioid-induced bowel dysfunction (morphine-delayed gastric emptying and small intestinal transit); assay type: in vivo; settings: morphine 3 mg/kg s.c.
From the text: Opioid analgesics, such as morphine, are well known to delay gastrointestinal transit, which is a noted side effect for this class of drugs. (Greenwood-van Meerveld, B.; Gardner, C. J.; Little, P. J.; Hicks, G. A.; DeHaven-Hudkins, D. L. Preclinical studies of opioids and opioid antagonists on gastrointestinal function. Neurogastroenterol. Motil. 2004, 16, 46-53.) The clinical term for this syndrome is opioid-induced bowel dysfunction (OBD). The aim of this study was to determine whether test compounds can effectively reverse morphine-induced delayed gastric emptying and small intestinal transit in a rat model of opioid-induced bowel dysfunction.
• 1. Rats (male, Sprague-Dawley, 250-300 g, N=6-7/gp) were implanted with jugular vein catheters to accommodate dosing of test articles. • 2. Overnight-fasted rats were administered morphine by sub-cutaneous injection (3 mg/kg). • 3. After 60 minutes, rats were dosed (i.v. bolus) with vehicle, test compound (0.30, 1.0 mg/kg) or GHRP-6 (0.02 mg/kg) followed by intragastric gavage of ^99mTc methylcellulose (2%) meal. • 4. After 15 minutes, the rats were euthanized and the stomach and consecutive 10 cm segments of the intestine are isolated. Radioactivity (^99mTc) in each tissue isolate is measured as a means of measuring gastric emptying and small intestinal transit. • 5. One-way ANOVA, Dunnet's post-hoc statistical test was applied. • 6.
• 1. […] Methods • 1. Rats (male, Sprague-Dawley, 250-300 g) were implanted with jugular vein catheters to accommodate dosing of test articles. • 2. Overnight-fasted rats were administered morphine (3 mg/kg s.c.). • 3. […] After 15 min, the rats were euthanized and the stomach and consecutive 10 cm segments of the intestine are isolated. Radioactivity (^99mTc) in each tissue isolate was measured as a means of measuring the transit of the meal. • 5. Results

[1] = tested on: POI rats concurrently dosed with morphine; assay: Combination rat model of post-operative ileus and opioid-induced bowel dysfunction; assay type: in vivo
[2] = GHRP-6 0.02 mg/kg i.v., mean ± sem

CCC(C)[C@@H]1NCCOc2ccccc2CCCNC(=O)[C@@H](Cc2ccc(Cl)cc2)NC(=O)[C@@H](C)N(C)C1=O (stereo partly drawn) [Compound 25]
gastric emptying (fasted Wistar rats; 30 μg/kg): significant gastric emptying
increase in gastric emptying relative to the vehicle control group (fasted Wistar rats; 100 μg/kg i.v.): 39%
potency in gastric emptying compared to metoclopramide, based on the different dose levels (fasted Wistar rats): ~100 fold

CCN(CC)CCNC(=O)c1cc(Cl)c(N)cc1OC [metoclopramide, reference compound]
increase in gastric emptying relative to the vehicle control group (fasted Wistar rats; 10 mg/kg i.v.): 41%

GHRP-6
Geometric Center (rats dosed with morphine; [2]): 3.38 ± 0.76
Intragastric Residue (%) (rats dosed with morphine; [2]): 0.48 ± 0.10%
increase in gastric emptying relative to the vehicle control group (fasted Wistar rats; 20 μg/kg i.v.): 40%

CN1CC[C@]23c4c5ccc(O)c4O[C@H]2[C@@H](O)C=C[C@H]3[C@H]1C5 [morphine]
gastric emptying and small intestinal transit (rats dosed with morphine; preliminary study): significantly delayed

C[C@@H]1CN[C@@H](C2CC2)C(=O)N(C)[C@H](C)C(=O)N[C@H](Cc2ccc(F)cc2)C(=O)NCCCc2ccccc2O1 [Compound 298]
potency in gastric emptying compared to metoclopramide, based on the different dose levels (fasted Wistar rats): ~100 fold
gastric emptying ([1]; 0.1, 0.3, 1, 3 mg/kg i.v., FIG. 8): significantly accelerates
small intestinal transit ([1]; 0.1, 0.3, 1, 3 mg/kg i.v., FIG. 9): significantly accelerates
lowest dose level effective at restoring GI motility ([1]; combination of POI and OBD): 0.1 mg/kg
